Test results: patent publication US5981777A, “Recovery of taxanes from plant material” (The Regents of the University of California, priority 1997, dated 1999)

What was measured:
[1] = tested on: polyclonal anti-taxane (TA11) antibody; assay: indirect competitive immunoassay, cross-reactivity with TA11; conditions: > x = highest concentration tested (270 or 300 ng/ml), read-out: IC50 TA11 (concentration of analyte required to inhibit antibody binding to solid phase antigen by 50%)
Text: (§1) A preferred antibody is TA14 available from Hawaii Biotechnology Group is particularly useful for this purpose. The cross-reactivity of polyclonal anti-taxane (TA11) and taxol- (TA12), baccatin III- (TA13), or "generic taxane"-specific (TA14) monoclonal antibodies as determined by indirect competitive immunoassays is set forth in Table 1. All of these antibodies are available from Hawaii Biotechnology group.
(§2) ^a Crossreactivity is expressed as the concentration of analyte
(§3) required to inhibit antibody binding to solid phase antigen by 50%
(§4) (IC50) in the indicated competitive immunoassay. Values expressed as
(§5) > x represent the highest concentration tested (either 270 or 300 ng/ml).

[2] = tested on: taxol-specific (TA12) monoclonal antibody; assay: indirect competitive immunoassay, cross-reactivity with TA12; design: species or system mouse; conditions: > x = highest concentration tested (270 or 300 ng/ml), read-out: IC50 TA12 (concentration of analyte required to inhibit antibody binding to solid phase antigen by 50%)
Text: as §1, §2, §3, §4, §5

[3] = tested on: baccatin III-specific (TA13) monoclonal antibody; assay: indirect competitive immunoassay, cross-reactivity with TA13; design: species or system mouse; conditions: > x = highest concentration tested (270 or 300 ng/ml), read-out: IC50 TA13 (concentration of analyte required to inhibit antibody binding to solid phase antigen by 50%)
Text: as §1, §2, §3, §4, §5

[4] = tested on: "generic taxane"-specific (TA14) monoclonal antibody; assay: indirect competitive immunoassay, cross-reactivity with TA14; design: species or system mouse; conditions: > x = highest concentration tested (270 or 300 ng/ml), read-out: IC50 TA14 (concentration of analyte required to inhibit antibody binding to solid phase antigen by 50%)
Text: as §1, §2, §3, §4, §5

[5] = tested on: "generic taxane"-specific (TA14) monoclonal antibody; conditions: in words; Kingston et al. J. Nat. Prod. 53:1-12 (1990); cited from earlier work
[6] = tested on: taxol-specific (TA12) monoclonal antibody; conditions: in words; cited from earlier work
[7] = tested on: baccatin III-specific (TA13) monoclonal antibody; conditions: in words; cited from earlier work

CC(=O)O[C@@]12CO[C@@H]1C[C@@H](O)[C@@]1(C)C(=O)[C@H](O)C3=C(C)[C@@H](O)C[C@@](O)([C@@H](OC(=O)c4ccccc4)[C@H]21)C3(C)C [7-epi-10-deacetylbaccatin III]
IC50 [1]: 34 nM | IC50 [2]: > 496 nM

CC(=O)O[C@@]12CO[C@@H]1C[C@@H](O)[C@@]1(C)C(=O)[C@H](O)C3=C(C)[C@@H](OC(=O)[C@H](O)[C@@H](NC(=O)c4ccccc4)c4ccccc4)C[C@@](O)([C@@H](OC(=O)c4ccccc4)[C@H]21)C3(C)C [7-epi-10-deacetyltaxol]
IC50 [1]: 1.2 nM | IC50 [2]: 25 nM | IC50 [3]: > 333 nM | IC50 [4]: 15 nM

CC(=O)O[C@H]1C(=O)[C@]2(C)[C@H](O)C[C@H]3OC[C@@]3(OC(C)=O)[C@H]2[C@H](OC(=O)c2ccccc2)[C@]2(O)C[C@H](OC(=O)[C@H](O)[C@@H](NC(=O)c3ccccc3)c3ccccc3)C(C)=C1C2(C)C [7-epi-taxol]
IC50 [1]: 8 nM | IC50 [2]: 80 nM | IC50 [3]: > 316 nM | IC50 [4]: 50 nM

CC(=O)O[C@@]12CO[C@@H]1C[C@H](O[C@@H]1OC[C@@H](O)[C@H](O)[C@H]1O)[C@@]1(C)C(=O)[C@H](O)C3=C(C)[C@@H](OC(=O)[C@H](O)[C@@H](NC(=O)c4ccccc4)c4ccccc4)C[C@@](O)([C@@H](OC(=O)c4ccccc4)[C@H]21)C3(C)C [7-xylosyl-10-deacetyltaxol]
IC50 [1]: 1.8 nM

CC(=O)O[C@@]12CO[C@@H]1C[C@H](O)[C@@]1(C)C(=O)[C@H](O)C3=C(C)[C@@H](OC(=O)[C@H](O)[C@@H](NC(=O)c4ccccc4)c4ccccc4)C[C@@](O)([C@@H](OC(=O)c4ccccc4)[C@H]21)C3(C)C [10-deacelyltaxol]
IC50 [1]: 0.7 nM

CC(=O)O[C@@]12CO[C@@H]1C[C@H](O)[C@@]1(C)C(=O)[C@H](O)C3=C(C)[C@@H](O)C[C@@](O)([C@@H](OC(=O)c4ccccc4)[C@H]21)C3(C)C [10-deacetylbaccatin III]
cross-reaction with TA14 [5]: cross reacts

CC(=O)O[C@H]1C(=O)[C@@]2(C)[C@H]([C@H](OC(=O)c3ccccc3)[C@]3(O)C[C@H](OC(=O)[C@H](O)[C@@H](NC(=O)c4ccccc4)c4ccccc4)C(C)=C1C3(C)C)[C@]1(OC(C)=O)CO[C@@H]1C[C@@H]2O [Taxol ® (paclitaxel), paclitaxel]
IC50 [1]: 0.5 nM | reactivity with TA12 [6]: specifically reactive | cross-reaction with TA14 [5]: cross reacts

CC(=O)O[C@@]12CO[C@@H]1C[C@H](O)[C@@]1(C)C(=O)[C@H](O)C3=C(C)[C@@H](OC(=O)[C@H](O)[C@@H](NC(=O)OC(C)(C)C)c4ccccc4)C[C@@](O)([C@@H](OC(=O)c4ccccc4)[C@H]21)C3(C)C [Taxotere ® (docetaxel), docetaxel]
IC50 [2]: > 318 nM | IC50 [3]: > 318 nM | IC50 [4]: 10 nM

CC(=O)O[C@H]1C(=O)[C@@]2(C)[C@H]([C@H](OC(=O)c3ccccc3)[C@]3(O)C[C@H](O)C(C)=C1C3(C)C)[C@]1(OC(C)=O)CO[C@@H]1C[C@@H]2O [baccatin III]
binding to TA13 [7]: binds with equal affinity | cross-reaction with TA14 [5]: cross reacts

CC(=O)O[C@H]1C(=O)[C@]2(C)[C@H](O)C[C@H]3OC[C@@]3(OC(C)=O)[C@H]2[C@H](OC(=O)c2ccccc2)[C@]2(O)C[C@H](O)C(C)=C1C2(C)C [baccatin V]
binding to TA13 [7]: binds with equal affinity

C/C=C(\C)C(=O)N[C@@H](c1ccccc1)[C@@H](O)C(=O)O[C@H]1C[C@@]2(O)[C@@H](OC(=O)c3ccccc3)[C@@H]3[C@]4(OC(C)=O)CO[C@@H]4C[C@H](O)[C@@]3(C)C(=O)[C@H](OC(C)=O)C(=C1C)C2(C)C [cephalomannine]
IC50 [1]: 1 nM | cross-reaction with TA14 [5]: cross reacts
